In patent US8207177B2, “Inhibitors of E1 activating enzymes” (Millennium Pharmaceuticals, Inc., priority 2006, dated 2012):

biological target: T1, recombinant human NAE enzyme (Homo sapiens, UniProt Q8TBC4); experiment: Nedd8-Activating Enzyme (NAE) HTRF Assay; assay type: biochemical; conditions: threshold statement: less than or equal to 100 nM; 20 μM ATP, 90 minutes at 24° C.
T1 construct: His (N); made in house; host or cells: Sf9 insect cells (baculovirus, Bac-to-Bac), purified on Ni-NTA
T1 sequence (Q8TBC4 1-463): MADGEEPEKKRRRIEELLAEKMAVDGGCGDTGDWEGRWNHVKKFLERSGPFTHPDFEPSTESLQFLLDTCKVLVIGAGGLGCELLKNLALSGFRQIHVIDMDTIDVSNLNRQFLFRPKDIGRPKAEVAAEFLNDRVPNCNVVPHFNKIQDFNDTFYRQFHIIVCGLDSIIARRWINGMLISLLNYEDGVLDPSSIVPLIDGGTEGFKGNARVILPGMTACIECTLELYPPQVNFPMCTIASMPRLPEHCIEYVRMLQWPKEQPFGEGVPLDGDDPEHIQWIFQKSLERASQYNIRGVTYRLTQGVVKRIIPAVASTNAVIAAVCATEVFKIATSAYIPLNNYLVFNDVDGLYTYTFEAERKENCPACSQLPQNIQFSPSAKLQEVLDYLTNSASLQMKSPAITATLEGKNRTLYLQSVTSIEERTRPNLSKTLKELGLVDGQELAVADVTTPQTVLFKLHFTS
T1 sequence (Q13564 1-534 partner): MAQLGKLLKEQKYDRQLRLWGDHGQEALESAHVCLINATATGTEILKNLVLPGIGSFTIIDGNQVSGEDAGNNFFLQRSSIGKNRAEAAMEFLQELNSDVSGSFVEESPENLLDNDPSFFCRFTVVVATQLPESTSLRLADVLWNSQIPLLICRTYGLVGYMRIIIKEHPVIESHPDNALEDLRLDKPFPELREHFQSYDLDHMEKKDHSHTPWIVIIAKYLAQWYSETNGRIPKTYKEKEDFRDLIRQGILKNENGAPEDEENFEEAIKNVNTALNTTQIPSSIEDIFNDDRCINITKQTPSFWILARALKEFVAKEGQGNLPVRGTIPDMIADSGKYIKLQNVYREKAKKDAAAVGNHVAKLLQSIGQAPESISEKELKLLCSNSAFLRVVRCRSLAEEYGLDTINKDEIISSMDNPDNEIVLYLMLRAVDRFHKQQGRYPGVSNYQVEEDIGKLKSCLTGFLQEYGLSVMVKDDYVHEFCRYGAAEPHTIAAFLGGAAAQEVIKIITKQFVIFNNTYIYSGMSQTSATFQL
Description: Following manufacturer instructions, baculoviruses were generated with the Bac-to-Bac Expression System (Invitrogen) for the following proteins: untagged NAEα (APPBP1; NP_003896.1), N-terminally His-tagged NAEβ (UBE1C; NP_003959.3), untagged SAEα (SAE1; NP_005491.1), N-terminally His-tagged SAEβ (UBA2; NP_005490.1), N-terminally His-tagged murine UAE (UBE1X; NP_033483). NAEα/His-NAEβ and SAEα/His-SAEβ complexes were generated by co-infection of Sf9 cells, which were harvested after 48 hours. His-mUAE was generated by single infection of Sf9 cells and harvested after 72 hours. Expressed proteins were purified by affinity chromatography (Ni—NTA agarose, Qiagen) using standard buffers. Ubc12 (UBE2M; NP_003960.1), Ubc9 (UBE2I; NP_003336.1), Ubc2 (UBE2A; NP_003327.2) were subcloned into pGEX (Pharmacia) and expressed as N-terminally GST tagged fusion proteins in E. coli. Expressed proteins were purified by conventional affinity chromatography using standard buffers. Nedd8 (NP_006147), Sumo-1 (NP_003343) and Ubiquitin (with optimized codons) were subcloned into pFLAG-2 (Sigma) and expressed as N-terminally Flag tagged fusion proteins in E. coli. Expressed proteins were purified by conventional chromatography using standard buffers. Nedd8-Activating Enzyme (NAE) HTRF Assay. The NAE enzymatic reaction totaled 50 μL and contained 50 mM HEPES (pH 7.5), 0.05% BSA, 5 mM MgCl2, 20 μM ATP, 250 μM GSH, 0.01 μM Ubc12-GST, 0.075 μM Nedd8-Flag and 0.28 nM recombinant human NAE enzyme. The enzymatic reaction mixture, with and without compound inhibitor, was incubated at 24° C. for 90 minutes in a 384-well plate before termination with 25 μL of Stop/Detection buffer (0.1M HEPES pH 7.5, 0.05% Tween20, 20 mM EDTA, 410 mM KF, 0.53 nM Europium-Cryptate labeled monoclonal anti-FLAG M2 antibody (CisBio International) and 8.125 μg/mL PHYCOLINK goat anti-GST allophycocyanin (XL-APC) antibody (Prozyme)). After incubation for 3 hours at 24° C., quantification of the FRET was performed on the Analyst™ HT 96.384 (Molecular Devices).

IC50	SMILES
≤ 0.1 µM	Cc1cc(Cl)ccc1CNc1ncnc2c1ccn2[C@@H]1C[C@@H](COS(N)(=O)=O)[C@@H](O)C1 [Compound I-48, ((1S,2S,4R)-4-{4-[(4-chloro-2-methylbenzyl)amino]-7H-pyrrolo[2,3-d]pyrimidin-7-yl}-2-hydroxycyclopentyl)methyl sulfamate]
≤ 0.1 µM	NS(=O)(=O)OCC[C@@H]1C[C@@H](n2ccc3c(N[C@H]4CCc5ccccc54)ncnc32)C[C@@H]1O [Compound I-76, 2-((1S,2S,4R)-4-{4-[(1S)-2,3-dihydro-1H-inden-1-ylamino]-7H-pyrrolo[2,3-d]pyrimidin-7-yl}-2-hydroxycyclopentyl)ethyl sulfamate]
≤ 0.1 µM	NS(=O)(=O)OC[C@@H]1C[C@@H](n2ccc3c(NCc4ccc(Cl)cc4C(F)(F)F)ncnc32)C[C@@H]1O [Compound I-42, [(1S,2S,4R)-4-(4-{[4-chloro-2-(trifluoromethyl)benzyl]amino}-7H-pyrrolo[2,3-d]-pyrimidin-7-yl)-2-hydroxycyclopentyl]methyl sulfamate]
≤ 0.1 µM	NS(=O)(=O)OC[C@@H]1C[C@@H](n2ccc3c(N[C@H]4CCc5ccccc54)ncnc32)[C@H](O)[C@@H]1O [Compound I-17, ((1S,2R,3S,4R)-4-{4-[(1S)-2,3-dihydro-1H-inden-1-ylamino]-7H-pyrrolo[2,3-d]-pyrimidin-7-yl}-2,3-dihydroxycyclopentyl)methyl sulfamate]
≤ 0.1 µM	NS(=O)(=O)OC[C@@H]1C[C@@H](n2ccc3c(NCc4cc(Cl)cc(Cl)c4)ncnc32)C[C@@H]1O [Compound I-16, ((1S,2S,4R)-4-{4-[(3,5-dichlorobenzyl)amino]-7H-pyrrolo[2,3-d]pyrimidin-7-yl}-2-hydroxycyclopentyl)methyl sulfamate]
≤ 0.1 µM	NS(=O)(=O)OC[C@@H]1C[C@@H](n2ccc3c(NCc4cccc5ccccc45)ncnc32)C[C@@H]1O [Compound I-38, ((1S,2S,4R)-2-hydroxy-4-{4-[(1-naphthylmethyl)amino]-7H-pyrrolo[2,3-d]-pyrimidin-7-yl}cyclopentyl)methyl sulfamate]
≤ 0.1 µM	NS(=O)(=O)NC[C@@H]1C[C@@H](n2ccc3c(N[C@H]4CCc5ccccc54)ncnc32)C[C@@H]1O [Compound I-56, N-[((1S,2S,4R)-4-{4-[(1S)-2,3-dihydro-1H-inden-1-ylamino]-7H-pyrrolo[2,3-d]-pyrimidin-7-yl}-2-hydroxycyclopentyl)methyl]sulfamide]
≤ 0.1 µM	NS(=O)(=O)OC[C@@H]1C[C@@H](n2ccc3c(NCc4ccccc4Cl)ncnc32)C[C@@H]1O [Compound I-1, ((1S,2S,4R)-4-{4-[(2-chlorobenzyl)amino]-7H-pyrrolo[2,3-d]pyrimidin-7-yl}-2-hydroxycyclopentyl)methyl sulfamate]
≤ 0.1 µM	COc1ccccc1CNc1ncnc2c1ccn2[C@@H]1C[C@@H](COS(N)(=O)=O)[C@@H](O)C1 [Compound I-43, ((1S,2S,4R)-2-hydroxy-4-{4-[(2-methoxybenzyl)amino]-7H-pyrrolo[2,3-d]-pyrimidin-7-yl)cyclopentyl)methyl sulfamate]
≤ 0.1 µM	CO[C@H]1Cc2ccccc2[C@H]1Nc1ncnc2c1ccn2[C@@H]1C[C@@H](COS(N)(=O)=O)[C@@H](O)C1 [Compound I-52, [(1S,2S,4R)-2-hydroxy-4-(4-{[(1R,2S)-2-methoxy-2,3-dihydro-1H-inden-1-yl]-amino}-7H-pyrrolo[2,3-d]pyrimidin-7-yl)cyclopentyl]methyl sulfamate]
≤ 0.1 µM	NS(=O)(=O)OC[C@@H]1C[C@@H](n2ccc3c(Nc4ccccc4)ncnc32)C[C@@H]1O [Compound I-39, [(1S,2S,4R)-4-(4-anilino-7H-pyrrolo[2,3-d]pyrimidin-7-yl)-2-hydroxycyclopentyl]methyl sulfamate]
≤ 0.1 µM	NS(=O)(=O)OC[C@@H]1C[C@@H](n2ccc3c(NCc4ccc(Cl)cc4)ncnc32)C[C@@H]1O [Compound I-45, ((1S,2S,4R)-4-{4-[(4-chlorobenzyl)amino]-7H-pyrrolo[2,3-d]pyrimidin-7-yl}-2-hydroxycyclopentyl)methyl sulfamate]
≤ 0.1 µM	NS(=O)(=O)CC[C@@H]1C[C@@H](n2ccc3c(N[C@H]4CCc5ccccc54)ncnc32)C[C@@H]1O [Compound I-59, 2-((1S,2S,4R)-4-{4-[(1S)-2,3-dihydro-1H-inden-1-ylamino]-7H-pyrrolo[2,3-d]-pyrimidin-7-yl}-2-hydroxycyclopentyl)ethanesulfonamide]
≤ 0.1 µM	C[C@]1(O)C[C@H](n2ccc3c(N[C@H]4CCc5ccccc54)ncnc32)C[C@H]1COS(N)(=O)=O [Compound I-30, ((1S,2S,4R)-4-{4-[(1S)-2,3-dihydro-1H-inden-1-ylamino]-7H-pyrrolo[2,3-d]-pyrimidin-7-yl}-2-hydroxy-2-methylcyclopentyl)methyl sulfamate]
≤ 0.1 µM	C[C@@H](Nc1ncnc2c1ccn2[C@@H]1C[C@@H](COS(N)(=O)=O)[C@@H](O)C1)c1ccccc1 [Compound I-7, [(1S,2S,4R)-2-hydroxy-4-(4-{[(1R)-1-phenylethyl]amino}-7H-pyrrolo[2,3-d]-pyrimidin-7-yl)cyclopentyl]methyl sulfamate]
≤ 0.1 µM	Nc1ncnc2c1ccn2[C@@H]1C[C@@H](COS(N)(=O)=O)[C@@H](O)C1 [Compound I-18, [(1S,2S,4R)-4-(4-amino-7H-pyrrolo[2,3-d]pyrimidin-7-yl)-2-hydroxycyclopentyl]methyl sulfamate]
≤ 0.1 µM	NS(=O)(=O)OC[C@@H]1C[C@@H](n2ccc3c(N[C@H]4CCc5c(F)ccc(F)c54)ncnc32)C[C@@H]1O [Compound I-62, [(1S,2S,4R)-4-(4-{[(1S)-4,7-difluoro-2,3-dihydro-1H-inden-1-yl]amino}-7H-pyrrolo[2,3-d]pyrimidin-7-yl)-2-hydroxycyclopentyl]methyl sulfamate]
≤ 0.1 µM	CC[C@@H]1Cc2ccccc2[C@@H]1Nc1ncnc2c1ccn2[C@@H]1C[C@@H](COS(N)(=O)=O)[C@@H](O)C1 [Compound I-83, [(1S,2S,4R)-4-(4-{[(1R,2R)-2-ethyl-2,3-dihydro-1H-inden-1-yl]amino}-7H-pyrrolo[2,3-d]pyrimidin-7-yl)-2-hydroxycyclopentyl]methyl sulfamate]
≤ 0.1 µM	NS(=O)(=O)OC[C@@H]1C[C@@H](n2ccc3c(NCc4ccccc4)ncnc32)C[C@@H]1O [Compound I-49, {(1S,2S,4R)-4-[4-(benzylamino)-7H-pyrrolo[2,3-d]pyrimidin-7-yl]-2-hydroxycyclopentyl}methyl sulfamate]
≤ 0.1 µM	C[C@@H]1Cc2ccccc2[C@@H]1Nc1ncnc2c1ccn2[C@@H]1C[C@@H](COS(N)(=O)=O)[C@@H](O)C1 [Compound I-81, [(1S,2S,4R)-2-hydroxy-4-(4-{[(1R,2R)-2-methyl-2,3-dihydro-1H-inden-1-yl]amino)-7H-pyrrolo[2,3-d]pyrimidin-7-yl)cyclopentyl]methyl sulfamate]
